Tests used:
Format in all cases: cell-based
[1] = test system: LU99 MTAP overexpressing cells; assay: Inhibitory activity on proliferation of LU99 MTAP overexpressing cells (Cell-Titer Glo); settings: Homo sapiens, Lu-99, 144 h, incubated 6 d, 0-10,000 nM
Protocol: (§1) Materials and cells: LU99 MTAP overexpressing cell line was purchased from Kyinno Biotechnology (China); cell culture medium and fetal bovine serum were purchased from Thermo Fisher Scientific (USA); 384-well plates were purchased from PerkinElmer (USA); Cell-Titer Glo kits were purchased from Promega (USA).
Cell culture: LU99 MTAP overexpressing cells were cultured with medium containing 10% fetal bovine serum at 37°C in 5% carbon dioxide. Only cells in the logarithmic growth phase could be used for the test.
(§2) Test of inhibitory activity on cell proliferation: The Cell-Titer Glo kit was used to test the proliferation inhibitory activity of the compounds on LU99 MTAP overexpressing cells. The cell concentration was adjusted, rendering that cells were inoculated into a 384-well plate at 40 µL per well and incubated overnight at 37°C and 5% carbon dioxide. 40 nL of the compound was added to each well to reach a final concentration of 0-10,000 nM (starting concentration 10,000 nM, 2.5-fold dilution, 10 points), and the cell plate with 0.2% DMSO content was incubated at 37°C and 5% carbon dioxide for 6 d. 40 µL of Cell-Titer Glo reagent was added to test cell viability.

[2] = test system: HCT-116 MTAP(-/-)deleted cells; assay: Inhibitory activity on proliferation of HCT-116 MTAP(-/-)deleted cells (Cell-Titer Glo); settings: Homo sapiens, 144 h, incubated 6 d, 0-1,000 nM
Protocol: (§3) Materials and cells: HCT-116 MTAP(-/-)deleted cells were purchased from Kyinno Biotechnology (China); RPMI-1640 medium, and fetal bovine serum were purchased from Thermo Fisher (United States); 384-well plates were purchased from PerkinElmer (United States); Cell-Titer Glo kit was purchased from Promega (United States).
Cell culture: HCT116 MTAP(-/-)deleted cells were cultured with RPMI 1640 medium containing 10% fetal bovine serum at 37°C in 5% carbon dioxide. Only cells in the logarithmic growth phase could be used for the test.
(§4) Test of inhibitory activity on cell proliferation: The Cell-Titer Glo kit was used to test the proliferation inhibitory activity of the compounds on HCT-116 MTAP(-/-)deleted cells. The cell concentration was adjusted, rendering that cells were inoculated into a 384-well plate at 40 µL per well and incubated overnight at 37°C and 5% carbon dioxide. 80 nL of the compound was added into each well to reach a final concentration of 0-1,000 nM (starting concentration 1,000 nM, 2.5-fold dilution, 10 points), and the cell plate with 0.2% DMSO content was incubated at 37°C and 5% carbon dioxide for 6 d. 40 µL of Cell-Titer Glo reagent was added to test cell viability.

[3] = test system: HCT-116 wild-type cells; assay: Inhibitory activity on proliferation of HCT-116 wild-type cells (Cell-Titer Glo); settings: Homo sapiens, 144 h, incubated 6 d, 0-10,000 nM
Protocol: as §3, with “wild-type” for “MTAP(-/-)deleted”
Cell culture: HCT-116 wild-type cells were cultured in RPMI-1640 medium containing 10% fetal bovine serum at 37°C and 5% carbon dioxide. Only cells in the logarithmic growth phase could be used for the test.
as §2, with “of” for “of inhibitory activity on”, “cell proliferation activity:” for “cell proliferation: The”, “the compound” for “the compounds”, “on HCT-116 wild-type” for “on LU99 MTAP overexpressing”, “dioxide. 80” for “dioxide. 40”

[4] = test system: LU99 MTAP(-/-)deleted cells; assay: Inhibitory activity on proliferation of LU99 MTAP(-/-)deleted cells (Cell-Titer Glo); settings: Homo sapiens, Lu-99, 144 h, incubated 6 d, 0-1,000 nM
Protocol: as §1, with “deleted” for “overexpressing”
Cell culture: LU99 MTAP(-/-)deleted cells were cultured with medium containing 10% fetal bovine serum at 37°C in 5% carbon dioxide. Only cells in the logarithmic growth phase could be used for the test.
as §4, with “on LU99” for “on HCT-116”, “dioxide. 40” for “dioxide. 80”, “added to” for “added into”

Structure (SMILES) | IC50 [1] [nM] | IC50 [2] [nM] | IC50 [3] [nM] | IC50 [4] [nM]
CN(C(=O)c1ccc2nc(N)c3c(c2c1)CCO3)C1COC(C)(C)c2cc(C(F)(F)F)ccc21 (stereo not drawn) [Example 4, 4-Amino-N-(1,1-dimethyl-7-(trifluoromethyl)isochroman-4-yl)-N-methyl-1,2-dihydrofuro[2,3-c]quinoline-8-carboxamide] | 3270 | 1090 | 8140 | 2260
CN(C(=O)c1cc2c3c(c(N)nc2cn1)COC3)C1COC(C)(C)c2cc(C(F)(F)F)ccc21 (stereo not drawn) [Example 5, 4-Amino-N-(1,1-dimethyl-7-(trifluoromethyl)isochroman-4-yl)-N-methyl-1,3-dihydrofuro[3,4-c][1,7]naphthyridine-8-carboxamide] | 4980 | 28.2 | 7770 | 37.1
CN(C(=O)c1ccc2nc(N)c3c(c2c1)OCC3)C1COC(C)(C)c2cc(C(F)(F)F)ccc21 (stereo not drawn) [Example 6, 4-Amino-N-(1,1-dimethyl-7-(trifluoromethyl)isochroman-4-yl)-N-methyl-2,3-dihydrofuro[3,2-c]quinoline-8-carboxamide] | 5940 | 269 | 5950 | 355
CN(C(=O)c1ccc2nc(N)c3cnn(C)c3c2c1)C1COC(C)(C)c2cc(-c3cnn(C)c3)ccc21 (stereo not drawn) [Example 7, 4-amino-N-(1,1-dimethyl-7-(1-methyl-1H-pyrazol-4-yl)isochroman-4-yl)-N,1-dimethyl-1H-pyrazolo[4,3-c]quinoline-8-carboxamide] | 3100 | 5 | 2520 | 3.6
CN(C(=O)c1ccc2nc(N)c3c(c2c1)COC3)C1COC(C)(C)c2cc(C(F)(F)F)ccc21 (stereo not drawn) [Example 8, 4-Amino-N-(1,1-dimethyl-7-(trifluoromethyl)isochroman-4-yl)-N-methyl-2,3-dihydrofuro[3,4-c]quinoline-8-carboxamide] | 3250 | 16 | 3510 | 25.2
CN(C(=O)c1cc2c3c(c(N)nc2cn1)COC3)C1COC(C)(C)c2cc(-c3ccnn3C)ccc21 (stereo not drawn) [Example 9, (4-Amino(1,3-dihydrofuro[3,4-d]pyrido[5,4-b]pyridin-8-yl))-N-[1,1-dimethyl-7-(1-methylpyrazol-5-yl)isochroman-4-yl]-N-methylformamide] | 9790 | 45.4 | > 10000 | 85
CN(C(=O)c1ccc2nc(N)c3c(c2c1)COC3)C1COC(C)(C)c2cc(-c3ccnn3C)ccc21 (stereo not drawn) [Example 10, 4-Amino-N-(1,1-dimethyl-7-(1-methyl-1H-pyrazol-5-yl)isochroman-4-yl)-N-methyl-1,3-dihydrofuro[3,4-c]quinoline-8-carboxamide] | 3740 | 10.1 | 2060 | 18.3
CC1OCc2c1c(N)nc1ccc(C(=O)N(C)C3COC(C)(C)c4cc(C(F)(F)F)ccc43)cc21 (stereo not drawn) [Example 12, 4-Amino-N-(1,1-dimethyl-7-(trifluoromethyl)isochroman-4-yl)-N,3-dimethyl-1,3-dihydrofuro[3,4-c]quinoline-8-carboxamide] | 1990 | 21.2 | 2610 | 32.3
CN(C(=O)c1cc2c(cc1F)nc(N)c1cnn(C)c12)C1COC(C)(C)c2cc(Br)ccc21 (stereo not drawn) [Example 13, (4-Amino-7-fluoro-1-methylpyrazolo[4,5-c]quinolin-8-yl)-N-(7-bromo-1,1-dimethylisochroman-4-yl)-N-methylformamide] | 1070 | 10.9 | 720 | 18.9
CN(C(=O)c1cc2c(cc1F)nc(N)c1cnn(C)c12)C1COC(C)(C)c2cc(-c3ccnn3C)ccc21 (stereo not drawn) [Example 14, (4-amino-7-fluoro-1-methylpyrazolo[4,5-c]quinolin-8-yl)-N-[1,1-dimethyl-7-(1-methylpyrazol-5-yl)isochroman-4-yl]-N-methylformamide] | 309 | 4.1 | 286 | 5.9
CN(C(=O)c1cc2c(cc1F)nc(N)c1cnn(C)c12)C1COC(C)(C)c2cc(C(F)(F)F)ccc21 (stereo not drawn) [Example 15, 4-Amino-N-(1,1-dimethyl-7-(trifluoromethyl)isochroman-4-yl)-7-fluoro-N,1-dimethyl-1H-pyrazolo[4,3-c]quinoline-8-carboxamide] | 795 | 13.6 | 446 | 25.9
CN(C(=O)c1ccc2nc(N)c3cnn(C)c3c2c1)[C@@H]1COC(C)(C)c2cc(C(F)(F)F)ccc21 [Example 16, (S)-4-amino-N-(1,1-dimethyl-7-(trifluoromethyl)isochroman-4-yl)-N,1-dimethyl-1H-pyrazolo[4,3-c]quinoline-8-carboxamide] | 682 | 3.7 | 487 | 4.7
CN(C(=O)c1ccc2nc(N)c3cnn(C)c3c2c1)[C@H]1COC(C)(C)c2cc(C(F)(F)F)ccc21 [Example 17, (R)-4-amino-N-(1,1-dimethyl-7-(trifluoromethyl)isochroman-4-yl)-N,1-dimethyl-1H-pyrazolo[4,3-c]quinoline-8-carboxamide] | 5220 | 140 | 5550 | 174
CN(C(=O)c1ccc2nc(N)c3cnn(C)c3c2c1)[C@@H]1COC(C)(C)c2cc(N3CCS(=O)(=O)CC3)ccc21 [Example 78, […]] | 3740 |  |  | 17
CN(C(=O)c1cc2c(cn1)nc(N)c1cnn(C)c12)C1COC(C)(C)c2cc(C(F)(F)F)ncc21 (stereo not drawn) [Example 79, 4-Amino-N-(1,1-dimethyl-7-(trifluoromethyl)-3,4-dihydro-1H-pyrano[4,3-c]pyridin-4-yl)-N,1-dimethyl-1H-pyrazolo[4,3-c][1,7]naphthyridine-8-carboxamide] | 4380 |  |  | 41.9
CN(C(=O)c1ccc2nc(N)c3cnn(C)c3c2c1)[C@@H]1COC2(CCCC2)c2cc(C(F)(F)F)ccc21 [Example 82, (S)-4-amino-N,1-dimethyl-N-(7'-(trifluoromethyl)spiro[cyclopentane-1,1'-isochroman]-4'-yl)-1H-pyrazolo[4,3-c]quinoline-8-carboxamide] | 523 |  |  | 5.9
CN(C(=O)c1ccc2nc(N)c3cnn(C)c3c2c1)[C@@H]1COC(C)(C)c2cc(N3CC4CCC(C3)O4)ccc21 [Example 85, N-[(4S)-1,1-dimethyl-7-(8-oxa-3-azabicyclo[3.2.1]octan-3-yl)isochroman-4-yl](4-amino-1-methylpyrazolo[4,5-c]quinolin-8-yl)-N-methylformamide] | 2140 |  |  | 7.1
